# US11535627B2, “Pyrimidine derivative compound, pharmaceutically acceptable salt thereof, preparation process thereof, and pharmaceutical composition using the same” (Spark Biopharma, Inc., priority 2016, dated 2022)
# Entries after “also recorded” stand apart in the source; their conditions may differ.
# What was measured:
# [1] = molecular target: T1, Human LRS proteins (Homo sapiens, UniProt Q9P2J5); assay: Surface plasmon resonance (SPR) binding to LRS; conditions: for concentration-dependent binding to LRS (SPR): purified LRS
# T1 construct: His
# T1 sequence (Q9P2J5 whole entry): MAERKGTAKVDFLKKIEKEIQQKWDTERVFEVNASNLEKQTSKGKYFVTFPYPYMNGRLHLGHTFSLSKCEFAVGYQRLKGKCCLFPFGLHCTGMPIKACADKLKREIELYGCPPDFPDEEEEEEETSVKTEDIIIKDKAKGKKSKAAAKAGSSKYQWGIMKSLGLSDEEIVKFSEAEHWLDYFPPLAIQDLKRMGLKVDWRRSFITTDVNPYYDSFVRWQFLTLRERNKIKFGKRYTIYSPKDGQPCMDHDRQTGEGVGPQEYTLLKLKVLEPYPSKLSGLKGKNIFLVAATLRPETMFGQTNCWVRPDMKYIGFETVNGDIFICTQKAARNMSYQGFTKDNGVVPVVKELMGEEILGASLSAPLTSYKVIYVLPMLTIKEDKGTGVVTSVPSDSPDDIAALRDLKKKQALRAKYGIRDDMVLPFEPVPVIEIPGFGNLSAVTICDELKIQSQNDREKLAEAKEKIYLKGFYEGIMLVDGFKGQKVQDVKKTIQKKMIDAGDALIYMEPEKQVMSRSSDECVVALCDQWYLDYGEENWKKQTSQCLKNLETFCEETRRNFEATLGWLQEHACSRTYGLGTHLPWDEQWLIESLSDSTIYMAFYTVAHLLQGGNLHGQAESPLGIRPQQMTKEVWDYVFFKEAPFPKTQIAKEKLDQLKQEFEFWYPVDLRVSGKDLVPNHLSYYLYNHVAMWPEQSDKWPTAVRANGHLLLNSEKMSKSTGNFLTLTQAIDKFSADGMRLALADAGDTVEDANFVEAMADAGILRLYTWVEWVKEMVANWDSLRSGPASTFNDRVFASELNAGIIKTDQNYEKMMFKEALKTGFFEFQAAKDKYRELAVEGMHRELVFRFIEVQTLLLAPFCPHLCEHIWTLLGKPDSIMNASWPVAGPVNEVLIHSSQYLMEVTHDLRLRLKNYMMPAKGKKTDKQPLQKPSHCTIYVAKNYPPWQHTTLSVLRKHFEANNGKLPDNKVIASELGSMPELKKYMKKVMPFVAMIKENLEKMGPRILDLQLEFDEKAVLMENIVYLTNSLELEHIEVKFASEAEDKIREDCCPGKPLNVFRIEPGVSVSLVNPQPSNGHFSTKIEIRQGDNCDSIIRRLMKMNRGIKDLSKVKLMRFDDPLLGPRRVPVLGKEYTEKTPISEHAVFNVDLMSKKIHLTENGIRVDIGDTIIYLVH
# Method: The dissociation […] constant (KD) toward His-LRS proteins was determined by using SPR instrument (Biacore T100) at the national center for inter-university research facilities (NCIRF) in Seoul National University. The carboxyl group on the surface of CMS chip was able to be replaced with protein by forming reactive succinimide ester with 1-ethyl-3-(3-dimethylaminopropyl)-carbodiimide (EDC) and N-hydroxysuccinimide (NHS). Human LRS proteins (1.5×PBS, pH 7.3) were immobilized on flow cell 2 (imed RU; 12000) by leading to amide bond formation with NHS ester. The residual NHS ester was quenched with 1 M ethanolamine-HCl (pH 8.0). Amide bond formation alone, without any protein t, was performed on flow cell 1 as a control. The immobilization process was proceeded on PBS buffer. After the immobilization of hLRS, compounds were flowed for 60 s at a flow rate of 20 μl min^−1 in various concentrations from 1 μM to […] was then flowed at the same flow rate for 200 s for dissociation of compounds. As a running buffer, 1×PBS (pH 7.3) containing 3% DMSO and 0.005% P2O was used. The experiment was performed at 25° C. Data analysis was done by using Biacore T100 Evaluation software. […] The dissociation constant (KD) was calculated by fitting to the 1:1 binding model.
# [2] = molecular target: LRS-RagD interaction (Homo sapiens, UniProt Q9P2J5); assay: ELISA of LRS-RagD interaction; type: binding
# Chain of LRS-RagD interaction (Q9P2J5 whole entry): as above
# Method: His-tagged human LRS proteins were diluted in carbonate buffer (100 mM, pH 9.6) to the concentration of 0.5 ng μl^−1. […] Protein from each well was removed and washed three times with PBS mixed with 0.05% Tweed® 20 (PBST), subjected to blocking with PBS containing 5% bovine serum albumin (BSA) for 2 hours. Each well was washed with PBST, followed by the treatment of a compound and GST-tagged human RagD protein simultaneously for 3 hours. GST protein itself was used as a negative control. Each well was treated with GST antibody diluted in PBST and incubated at room temperature for 1 h. After washing with PBST, the HRP-conjugated anti-horse IgG secondary antibody was incubated at room temperature for 1 h. TMB was added to each well for colorimetric development. […] To stop the chemical reaction, the treatment with 1 m H3PO4 was done. Finally, absorbance at 450 nm were measured.
# [3] = test system: mTORC1; assay: Western blotting, mTORC1 signalling pathway in HEK293T cells; type: cell-based; conditions: for amount of phospho-T389 S6K1 / phosphorylation suppression of S6K1 by western blotting: 20 μM; for phosphorylation suppression of S6K1 by western blotting: phospho-T389 S6K1 relative to DMSO
# Method: HEK293T cell was cultured in Dulbecco modified eagle medium (DMEM) with 10% (v/v) fetal bovine serum (FBS) and 1% (v/v) antibiotic-antimycotic solution. […] The cells were cultured in 100-mm culture dish in an incubator at 37° C., in 5% CO2.
# Cells were lysed with Radio-ImmunoPrecipitation Assay (RIPA) buffer (50 mM Tris, pH 7.8, 150 mM NaCl, 0.5% deoxycholate, 1% IGEPAL CA-630, protease inhibitor cocktail, and phosphatase inhibitors). Protein was obtained by transferring supernatant after centrifugation at 15000 rpm for 20 min. Protein concentration was measured with Micro BCA™ protein assay kit. Overall protein sampling procedure was done at 4° C. Prepared protein samples were analyzed with SDS-PAGE. Protein after electrophoresis was transferred into nitrocellulose membrane. Membrane was blocked with TBST mixed with 2% BSA over at least 1 h at r.t. Primary antibodies were incubated overnight at 4° C. […] After washing with TBST, HRP-labeled anti-rabbit IgG secondary antibody was treated at room temperature for 1 h. After washing with TBST, developing by Amersham ECL prime solution was done. Chemiluminescent signal was imaged by ChemiDoc™ MP imaging system.
# [4] = test system: HeLa cells; assay: mCherry-GFP-LC3 puncta imaging; type: cell-based, human; conditions: 6 h, 200 nM Rap, 10 nM Baf, 20 μM 21f
# Method: HeLa cells were seeded in chambered coverglass from Nunc and incubated for 24 h. mCherry-GFP-LC3 plasmid was transfected to the cells using Lipofectamine™ 2000 solution. Transfection was proceeded according to manufacturer's protocol.
# DeltaVision Elite imaging system was used for the imaging of mCherry-GFP-LC3 transfected HeLa cell. For live-cell imaging, chamber was maintained at 37° C. and in 5% CO2. […] The wavelength range of the used filters is as follows: mCherry (Excitation: 575/25 nm, Emission: 625/45 nm); GFP (Excitation: 475/28 nm, Emission: 525/48 nm). Images were processed and analyzed with SoftWorks deconvolution software.
# [5] = test system: mTORC1; assay: Western blotting, mTORC1 signalling in Ca Ski cells; type: cell-based
# Method: (§1) HEK293T cell was cultured in Dulbecco modified eagle medium (DMEM) with 10% (v/v) fetal bovine serum (FBS) and 1% (v/v) antibiotic-antimycotic solution. HeLa, DU145, and Ca Ski cells were cultured in RPMI 1640 medium with 10% (v/v) FBS and 1% (v/v) antibiotic-antimycotic solution. The cells were cultured in 100-mm culture dish in an incubator at 37° C., in 5% CO2.
# (§2) Cells were lysed with Radio-ImmunoPrecipitation Assay (RIPA) buffer (50 mM Tris, pH 7.8, 150 mM NaCl, 0.5% deoxycholate, 1% IGEPAL CA-630, protease inhibitor cocktail, and phosphatase inhibitors). Protein was obtained by transferring supernatant after centrifugation at 15000 rpm for 20 min. Protein concentration was measured with Micro BCA™ protein assay kit. Overall protein sampling procedure was done at 4° C. Prepared protein samples were analyzed with SDS-PAGE. Protein after electrophoresis was transferred into nitrocellulose membrane. Membrane was blocked with TBST mixed with 2% BSA over at least 1 h at r.t. Primary antibodies were incubated overnight at 4° C. […]
# [6] = test system: HEK293T cells; assay: Cell proliferation assay (BrdU); type: cell-based; conditions: 5 μM, in the presence of Leu
# Method: HEK293T cells were seeded in 96-well plate from CORNING. 24 h after seeding, the compound diluted with DMEM at 5 μM of final concentration was treated in cells while leucine-free DMEM was treated in cells as a control. Cell division assay was done with WSTs assay and BrdU colorimetric kit, following the manufacturer's protocol.
# [7] = test system: mTORC1; assay: Western blotting, mTORC1 signalling in DU145 cells; type: cell-based
# Method: as §1, §2
# [8] = test system: HeLa human cervical cancer cells; assay: Western blot analysis of LC3 and p62 (autophagy) in HeLa cells; type: cell-based; conditions: for LC3 I/LC3 II ratio / p62 level: 6 h, 200 nM Rap, 10 nM Baf, 20 μM 21f, compared with DMSO
# Method: as §1
# Cells were lysed with Radio-ImmunoPrecipitation Assay (RIPA) buffer (50 mM Tris, pH 7.8, 150 mM NaCl, 0.5% deoxycholate, 1% IGEPAL CA-630, protease inhibitor cocktail, and phosphatase inhibitors). Protein was obtained by transferring supernatant after centrifugation at 15000 rpm for 20 min. Protein concentration was measured with Micro BCA™ protein assay kit. Overall protein sampling procedure was done at 4° C. Prepared protein samples were analyzed with SDS-PAGE. Protein after electrophoresis was transferred into nitrocellulose membrane. Membrane was blocked with TBST mixed with 2% BSA over at least 1 h at r.t. Primary antibodies were incubated overnight at 4° C. The treatment concentration was as follows: Anti-LC3B (ab51520); 1:1000, anti-S6K1 (ab32359); 1:1000, anti-phospho-T389 S6K1 (ab2571); 1:800, anti-p62 (CST 5114); 1:1000, anti-glyceraldehyde-3-phosphate dehydrogenase (GAPDH) (CST 2118); 1:1000, anti-phospho-S65 4E-BP1 (CST 9451); 1:1000, anti-phospho-S757 ULK1 (CST 6888); 1:800, anti-phospho-S473 Akt (CST 4058); 1:1000, anti-phospho-T172 AMPKα (CST 2531). After washing with TBST, HRP-labeled anti-rabbit IgG secondary antibody was treated at room temperature for 1 h. After washing with TBST, developing by Amersham ECL prime solution was done. Chemiluminescent signal was imaged by ChemiDoc™ MP imaging system.
# [9] = test system: AMPK signaling pathways; assay: Western blotting, phospho-T172 AMPKα in HEK293T cells; type: cell-based
# Method: as §1, §2
# [10] = test system: mTORC2 signaling pathways; assay: Western blotting, phospho-S473 Akt in HEK293T cells; type: cell-based
# Method: as §1, §2
# [11] = HEK293T cells, 20, 10, 5 and 1 μM, 3 h
structure (smiles),measurement,setting,value
CN(Cc1ccccc1)c1ncnc2c1[C@@H]1OC[C@H](CN2)N1S(=O)(=O)c1cccc([N+](=O)[O-])c1,melting point,,101 to 103 °C
CN(Cc1ccccc1)c1ncnc2c1C1OC[C@@H](CN2)N1C(=O)OC(C)(C)C [Compound 14f],concentration-dependent binding to LRS (SPR),[1],did not bind to LRS in a concentration-dependent manner
same,dose-dependent inhibition of the LRS-RagD interaction (dose-response curves in ELISA),[2],did not inhibit the LRS-RagD interaction in a dose-dependent manner
CN(Cc1ccccc1)c1ncnc2c1[C@@H]1OC[C@H](CN2)N1C(=O)NCc1ccccc1 [Compound 15f],dose-dependent inhibition of the LRS-RagD interaction (dose-response curves in ELISA),[2],did not inhibit the LRS-RagD interaction in a dose-dependent manner
same,melting point,,67 to 69 °C
CN(Cc1ccccc1)c1ncnc2c1CN1[C@@H](CN2)COCS1(=O)=O [Compound 18f],dose-dependent inhibition of the LRS-RagD interaction (dose-response curves in ELISA),[2],did not inhibit the LRS-RagD interaction in a dose-dependent manner
same,melting point,,196 to 198 °C
CN(Cc1ccccc1)c1ncnc2c1CN1C(=O)COC[C@@H]1CN2 [Compound 19f],concentration-dependent binding to LRS (SPR),[1],did not bind to LRS in a concentration-dependent manner
same,dose-dependent inhibition of the LRS-RagD interaction (dose-response curves in ELISA),[2],did not inhibit the LRS-RagD interaction in a dose-dependent manner
CN(Cc1ccccc1)c1ncnc2c1CN1C[C@@H]1CN2Cc1ccccc1 (stereo partly drawn) [Compound 20f],amount of phospho-T389 S6K1,"[3]; HEK293T cells, 3 h",less than that of 21f
same,phosphorylation suppression of S6K1 by western blotting,"[3]; HEK293T cells, 3 h",16.4%
same,dose-dependent inhibition of the LRS-RagD interaction (dose-response curves in ELISA),[2],inhibit the LRS-RagD interaction in a dose-dependent manner
same,reduction of LRS-RagD interaction by ELISA,[2],15.5%
Cc1cc(C)cc(CN2C[C@H]3CN3Cc3c(N(C)Cc4ccccc4)ncnc32)c1 (stereo partly drawn) [Compound 21f],inhibition degree against phospho-S757 ULK1,"[3]; HEK293T cells, 0-24 h, 21f 10 μM, rapamycin 500 nM",high inhibition degree
same,"Phospho-T389 S6K1, time course","[3]; HEK293T cells, 10 μM, 0-24 h",reduced in cells treated with 21f as time passed
same,duration of the effect on mTORC1 within cells,"[3]; HEK293T cells, 10 μM, 0-24 h",at least 12 h
same,"phospho-S65 4E-BP1, time course","[3]; HEK293T cells, 10 μM, 0-24 h",reduced in cells treated with 21f as time passed
same,"phospho-S757 ULK1, time course","[3]; HEK293T cells, 10 μM, 0-24 h",reduced in cells treated with 21f as time passed
same,amount of phospho-T389 S6K1,"[3]; HEK293T cells, 3 h",reduced amount of phospho-T389 S6K1
same,phosphorylation suppression of S6K1 by western blotting,"[3]; HEK293T cells, 3 h",48.9%
same,Phospho-T389 S6K1,[3]; [11],reduced in cells treated with 21f in a dose-dependent manner
same,phospho-S65 4E-BP1,[3]; [11],reduced in cells treated with 21f in a dose-dependent manner
same,phospho-S757 ULK1,[3]; [11],reduced in cells treated with 21f in a dose-dependent manner
same,mCherry and GFP fluorescence (mCherry-GFP-LC3),[4],red fluorescence
same,Kd,[1],4.5 µM
same,concentration-dependent binding to LRS (SPR),[1],concentration-dependent binding to LRS
same,"western blotting results, procedure of FIG. 15d",[5],same as those from HEK293T cells
same,cellular division level by BrdU assay,[6],suppressed cell proliferation even in the presence of Leu; also recorded: cellular division was inhibited as treatment time passed
same,"western blotting results, procedure of FIG. 15d",[7],same as those from HEK293T cells
same,dose-dependent inhibition of the LRS-RagD interaction (dose-response curves in ELISA),[2],inhibit the LRS-RagD interaction in a dose-dependent manner
same,reduction of LRS-RagD interaction by ELISA,[2],30.2%
same,LC3 I/LC3 II ratio,[8],lowering LC3 I/LC3 II ratio
same,p62 level,[8],stimulated the degradation of p62; also recorded: reducing p62 level
same,cellular level of LC3 II,[8]; in the presence of Leu,increased the cellular level of LC3 II
same,"phospho-T172 AMPKα, time course","[9]; HEK293T cells, 10 μM, 0-24 h",no effects
same,phospho-T172 AMPKα,[9]; [11],no effects
same,"phospho-S473 Akt, time course","[10]; HEK293T cells, 10 μM, 0-24 h",no effects
same,phospho-S473 Akt,[10]; [11],no effects
C=CCN1C[C@H]2COC(=O)N2Cc2c(N(C)Cc3ccccc3)ncnc21 [Compound 22f],dose-dependent inhibition of the LRS-RagD interaction (dose-response curves in ELISA),[2],did not inhibit the LRS-RagD interaction in a dose-dependent manner
same,melting point,,89 to 91 °C
CN(Cc1ccccc1)c1ncnc2c1CN(C(=O)OC(C)(C)C)[C@@H]1C=CCN2C1 [Compound 23f],dose-dependent inhibition of the LRS-RagD interaction (dose-response curves in ELISA),[2],did not inhibit the LRS-RagD interaction in a dose-dependent manner
"CO/C1=C\C(C)=C\[C@@H](C)[C@@H](O)[C@@H](C)C/C(C)=C/C=C/[C@H](OC)[C@@H]([C@@H](C)[C@@H](O)[C@H](C)[C@@]2(O)C[C@@H](O)[C@H](C)[C@@H](C(C)C)O2)OC1=O [bafilomycin, reference compound]",mCherry and GFP fluorescence (mCherry-GFP-LC3),[4],yellow color
same,LC3 I/LC3 II ratio,[8],increased ratio of LC3 I/LC3 II
same,p62 level,[8],accumulation of p62
"CO[C@H]1C[C@@H]2CC[C@@H](C)[C@@](O)(O2)C(=O)C(=O)N2CCCC[C@H]2C(=O)O[C@H]([C@H](C)C[C@@H]2CC[C@@H](O)[C@H](OC)C2)CC(=O)[C@H](C)/C=C(\C)[C@@H](O)[C@@H](OC)C(=O)[C@H](C)C[C@H](C)/C=C/C=C/C=C/1C [rapamycin, reference compound]",duration of the effect on mTORC1 within cells,"[3]; HEK293T cells, 500 nM, 0 to 24 hours",at least 12 hours
